Tested on: HER2-positive breast cancer
Experiment: NeoALTTO trial: pathologic complete response and event-free survival by treatment arm and adaptive immune signature (AIS) status
Assay type: in vivo, human
Conditions: NeoALTTO patients
[1] = AIS deficient, listed as lapatinib

CS(=O)(=O)CCNCc1ccc(-c2ccc3ncnc(Nc4ccc(OCc5cccc(F)c5)c(Cl)c4)c3c2)o1 [Lapatinib, lapatinib]
%6-yr EFS (6-year Event Free Survival rate) (AIS deficient): 68%
% pCR (complete pathological response rate) (AIS deficient): 17%
%6-yr EFS (6-year Event Free Survival rate) [1]: 68%
% pCR (complete pathological response rate) [1]: 17%
%6-yr EFS (6-year Event Free Survival rate) (AIS enrich): 65%
% pCR (complete pathological response rate) (AIS enrich): 21%

From patent US20210361768A1, “METHODS AND MATERIALS FOR ASSESSING AND TREATING CANCERS” (Mayo Foundation for Medical Education and Research, priority 2018, published 2021)
